The target in experiment [1] is T1, BACE1 (Homo sapiens (Human), UniProt P56817). In words: In vitro enzymatic BACE1 FRET assay. To be noted: pH 4.5, 1 h pre-incubation, read-out: BACE1 Enzyme IC50. It is filed as biochemical. On the procedure:
(§1) In Vitro Enzymatic BACE1 and BACE2 FRET (Fluorescence Resonance Energy Transfer) Assays
(§2) The cDNAs for both human recombinant BACE1 and 2 with C-terminal 6-His Tags were cloned into transient protein expression vectors, which were subsequently transfected into mammalian cell lines. These recombinant proteins were further purified using Ni-NTA affinity chromatography (Qiagen). The assay buffer used in these screens was 0.05 M acetate, pH 4.5, 8% DMSO final, 100 μM genapol (which is a nonionic detergent, below its Critical Micelle Concentration). The β-secretase enzyme (0.02 nM for BACE1 and 0.64 nM for BACE2), which was pre-incubated for one hour with the test compound, typically in about luL of DMSO according to a serial dilution, was added thereto. The assay was effectively started by the addition of FRET substrate (50 nM) and the combination was incubated for one hour. The FRET assay was terminated by the addition of tris buffer, which raised the pH to neutrality, and the fluorescence was determined. The FRET substrate was a peptide with commercially available fluorophore and quencher, on opposite sides of the BACE cleavage site. The specific FRET substrate used in this assay was made by Amgen in-house. Commercially available FRET substrates, for example, the FRET substrate offered with the BACE1 FRET Assay Kit sold by ThermoFisher Scientific (Catalog Number P2985), may be used in this assay with the appropriate modifications, which are within the purview of the ability of a person with ordinary skill in the art. Proteolytic cleavage of the FRET substrate released quenching of fluorescence (excitation 488 nm and emission 590 nm).
Target sequence in this assay (P56817 46-501): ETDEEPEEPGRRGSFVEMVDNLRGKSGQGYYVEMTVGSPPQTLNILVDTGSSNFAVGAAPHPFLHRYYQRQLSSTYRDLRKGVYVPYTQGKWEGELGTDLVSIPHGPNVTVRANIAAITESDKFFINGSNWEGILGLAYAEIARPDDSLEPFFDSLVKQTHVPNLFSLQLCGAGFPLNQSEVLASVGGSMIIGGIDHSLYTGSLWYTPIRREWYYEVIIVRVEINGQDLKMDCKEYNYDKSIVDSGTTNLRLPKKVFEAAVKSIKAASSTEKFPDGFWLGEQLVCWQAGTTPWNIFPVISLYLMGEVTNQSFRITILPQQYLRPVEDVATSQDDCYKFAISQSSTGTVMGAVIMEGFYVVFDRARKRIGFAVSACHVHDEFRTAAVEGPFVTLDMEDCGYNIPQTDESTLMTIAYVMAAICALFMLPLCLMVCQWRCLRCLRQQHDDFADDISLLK

The target in experiment [2] is T1, BACE1. The experiment is described as follows: In vitro BACE1 cell-based assay (Aβ40 in conditioned medium, HTRF). Particulars: Aβ40 in conditioned medium of cells stably expressing APP, 24 h. On the procedure: In Vitro BACE1 Cell-Based Assay
The cell-based assay measures inhibition or reduction of Aβ40 in conditioned medium of test compound treated cells expressing amyloid precursor protein. Cells stably expressing Amyloid Precursor Protein (APP) were plated at a density of 45K cells/well in 384 well plates (Corning/BioCoat 354663). The test compounds were then added to cells in 22-point dose response concentrations with the starting concentration being 62.5 μM. The compounds were diluted from stock solutions in DMSO and the final DMSO concentration of the test compounds on cells was 0.625%. The cells were cultivated overnight at 37° C. and 5% CO2 in DMEM supplemented with 10% FBS. After 24 h of incubation with the test compounds, the conditioned media was collected and the Aβ40 levels were determined using HTRF (Homogeneous Time Resolved Fluorescence). The IC50 of the compound was calculated from the percent of control or percent inhibition of Aβ 40 as a function of the concentration of the test compound.
The HTRF to detect Aβ40 was performed in 384 well plates (Costar 3658). The antibody pair that were used to detect Aβ 40 from cell supernatants were ConfAb40 antibody (Amgen in-house) and biotinylated 6E10 (BIOLEGEND). As an alternative to ConfAb40, a commercially available antibody, Anti-beta Amyloid 1-40 antibody [BDI350] from Abcam, Cambridge, Mass. 02139-1517 (Product code: ab20068), may be used in this assay. The concentrations were 0.35 μg/mL of ConfAb40 antibody and 1.33 μg/mL of 6E10-biotinylated antibody, as well as 4.5 μg/mL of Streptavidin Allophycocyanin Conjugate (ThermoFisher Scientific) in HTRF Buffer (1M Hepes pH 7.5, 1M NaCL, 1% BSA, 0.5% Tween 20).
The conditioned media was incubated with above antibodies and Streptavidin Allophycocyanin Conjugate for 30-60 minutes at 23° C. The final readout was performed on Envision from PerkinElmer.
For orientation: In TR-FRET formats the signal depends on donor and acceptor labels being close together.
Target sequence in this assay (P56817 46-501, species assumed): as the sequence (P56817 46-501) above

For experiment [3], the target named is human recombinant BACE2 (Homo sapiens (Human), UniProt Q9Y5Z0). In words: In vitro enzymatic BACE2 FRET assay. Format: biochemical. To be noted: pH 4.5, 1 h pre-incubation, read-out: BACE2 Enzyme IC50. As for the experimental part:
as §1, §2

For experiment [4], the target named is Recombinant CatD (Homo sapiens (Human), UniProt P07339). In words: In vitro enzymatic Cathepsin D (CatD) FRET assay. It is filed as biochemical. Particulars: pH 3.5, 1 h pre-incubation, read-out: Cat D Enzyme IC50. As for the experimental part: In Vitro Enzymatic Cathepsin D (CatD) FRET Assay Recombinant CatD was expressed in CHO cells. The assay buffer for CatD was 0.05 M citrate pH 3.5, 10% DMSO final, 5 mM CHAPS. The CatD enzyme (9 nM) was pre-incubated for one hour with inhibitors, typically in about luL of DMSO according to a serial dilution, is added thereto. The assays was effectively started by the addition of different FRET substrates (20 nM for CatD) and the combination was incubated for one hour. The FRET assay was terminated with by addition of tris buffer, which raises the pH to neutrality, and the fluorescence was determined. The FRET substrate was a peptide with commercially available fluorophore and quencher, on opposite sides of the CatD cleavage site. The CatD substrate peptide sequence was based on sequence #1 of Table 1 from Gulnik et al., FEBS Lett. 413(2):379-384 (1997). Proteolytic cleavage of the FRET substrate released quenching of fluorescence (CatD excitation 500 nm and emission 580 nm). The in vitro CatD FRET assay data for each of the Examples is provided in Table 2, conducted by the first procedure described above. […] Thus, with this surprising selectivity profile, the compounds provided herein are believed to minimize, reduce or completely eliminate any risk of retinal atrophy and abnormal development of the eye and of the retinal pigmented epithelium as it relates to the normal function and activity of CatD.
Recombinant CatD, sequence (P07339 65-412): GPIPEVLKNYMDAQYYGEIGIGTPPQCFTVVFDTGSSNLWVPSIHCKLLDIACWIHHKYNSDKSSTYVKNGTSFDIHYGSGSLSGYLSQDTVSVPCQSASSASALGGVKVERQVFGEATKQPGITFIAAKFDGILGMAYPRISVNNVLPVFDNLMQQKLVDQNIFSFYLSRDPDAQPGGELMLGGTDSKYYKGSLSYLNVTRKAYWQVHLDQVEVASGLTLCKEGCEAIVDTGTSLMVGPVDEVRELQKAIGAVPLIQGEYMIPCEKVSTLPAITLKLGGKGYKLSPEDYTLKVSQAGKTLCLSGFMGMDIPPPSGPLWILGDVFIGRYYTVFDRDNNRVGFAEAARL

Drawing on patent US10889579B2, “Thiazine derivatives as β-secretase inhibitors and methods of use” (AMGEN INC., priority 2016, dated 2021), this text covers IC50 for 14 compounds.

What is called IC50 is the concentration that inhibits the measured activity by half.

human recombinant BACE2, sequence (Q9Y5Z0 63-518): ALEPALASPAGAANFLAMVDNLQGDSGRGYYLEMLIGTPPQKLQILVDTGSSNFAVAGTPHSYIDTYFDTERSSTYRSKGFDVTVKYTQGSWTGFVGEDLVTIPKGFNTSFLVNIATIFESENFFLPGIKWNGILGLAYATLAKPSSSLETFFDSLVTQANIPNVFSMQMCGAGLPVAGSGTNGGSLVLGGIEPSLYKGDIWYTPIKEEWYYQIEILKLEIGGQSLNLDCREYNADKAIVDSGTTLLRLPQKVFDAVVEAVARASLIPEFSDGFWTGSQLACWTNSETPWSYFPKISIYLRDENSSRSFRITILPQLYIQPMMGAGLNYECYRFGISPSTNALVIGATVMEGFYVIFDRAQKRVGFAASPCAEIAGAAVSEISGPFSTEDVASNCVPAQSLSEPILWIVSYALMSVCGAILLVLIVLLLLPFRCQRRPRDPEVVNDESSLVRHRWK

Turning to `COC(=O)[C@H]1C[C@@](C)(c2cc(/C=C(\F)c3ccc(Cl)cn3)ccc2F)N=C(N)S1` (single isomer, unassigned) [Example 104], the IC50 stood at 212 nM in experiment [1], 468 nM in experiment [2], 185 nM in experiment [3] and 133000 nM in experiment [4].

On to `COC(=O)[C@@H]1C[C@@](C)(c2cc(/C=C(\F)c3ccc(Cl)cn3)ccc2F)N=C(N)S1` (single isomer, unassigned) [Example 105], for which the IC50 in experiment [1] was 45 nM; in experiment [2], 377 nM; in experiment [3] it was 49 nM; in experiment [4], 73700 nM.

Regarding `C[C@@]1(c2cc(/C=C(\F)c3ccc(Cl)cn3)ccc2F)C=CSC(N)=N1` [Example 100, (S,Z)-4-(5-(2-(5-chloropyridin-2-yl)-2-fluorovinyl)-2-fluorophenyl)-4-methyl-4H-1,3-thiazin-2-amine], the concentration for half-maximal inhibition (IC50) in experiment [1] is 220 nM; in experiment [2] it was 357 nM; in experiment [3] it was 191 nM; in experiment [4], 36900 nM.

Turning to `C[C@@]1(c2cc(/C=C(\F)c3ccc(C#N)cn3)ccc2F)C=CSC(N)=N1` [Example 101, (S,Z)-6-(2-(3-(2-amino-4-methyl-4H-1,3-thiazin-4-yl)-4-fluorophenyl)-1-fluorovinyl)nicotinonitrile], the IC50 in experiment [1] came to 98 nM; in experiment [2], 49 nM; in experiment [3] it was 601 nM; in experiment [4] it was 52000 nM.

For `C[C@@]1(c2cc(/C=C(\F)c3ccc(Cl)cn3)ccc2F)CCSC(N)=N1` [Example 102, (S,Z)-4-(5-(2-(5-chloropyridin-2-yl)-2-fluorovinyl)-2-fluorophenyl)-4-methyl-5,6-dihydro-4H-1,3-thiazin-2-amine], the IC50 in experiment [1] came to 124 nM; in experiment [2], 148 nM; in experiment [3], 64 nM; in experiment [4], 211000 nM.

As to `C[C@@]1(c2cc(/C=C(\F)c3ccc(C#N)cn3)ccc2F)CCSC(N)=N1` [Example 103, (S,Z)-6-(2-(3-(2-amino-4-methyl-5,6-dihydro-4H-1,3-thiazin-4-yl)-4-fluorophenyl)-1-fluorovinyl)nicotinonitrile], the half-inhibitory concentration (IC50) in experiment [1] came out at 74 nM; in experiment [2], 15 nM; in experiment [3], 482 nM; in experiment [4] it was 186000 nM.

`COC(=O)[C@]1(C)C[C@@](C)(c2cc(/C=C(\F)c3ccc(Cl)cn3)ccc2F)N=C(N)S1` [Example 106, (4S,6S)-methyl 2-amino-4-(5-((Z)-2-(5-chloropyridin-2-yl)-2-fluorovinyl)-2-fluorophenyl)-4,6-dimethyl-5,6-dihydro-4H-1,3-thiazine-6-carboxylate]: the IC50 in experiment [1] was 54 nM; in experiment [2], 215 nM; in experiment [3], 75 nM; in experiment [4] it was 91000 nM.

For `COC(=O)[C@@]1(C)C[C@@](C)(c2cc(/C=C(\F)c3ccc(Cl)cn3)ccc2F)N=C(N)S1` [Example 107, (4S,6R)-methyl 2-amino-4-(5-((Z)-2-(5-chloropyridin-2-yl)-2-fluorovinyl)-2-fluorophenyl)-4,6-dimethyl-5,6-dihydro-4H-1,3-thiazine-6-carboxylate], the IC50 worked out at 68 nM in experiment [1], 522 nM in experiment [2], 90 nM in experiment [3] and 282000 nM in experiment [4].

For the compound `COC(=O)[C@@]1(C)C[C@@](C)(c2cc(/C=C(\F)c3ccc(C#N)cn3)ccc2F)N=C(N)S1` [Example 108, (4S,6R)-methyl 2-amino-4-(5-((Z)-2-(5-cyanopyridin-2-yl)-2-fluorovinyl)-2-fluorophenyl)-4,6-dimethyl-5,6-dihydro-4H-1,3-thiazine-6-carboxylate], the half-inhibitory concentration (IC50) in experiment [1] is 16 nM; in experiment [2], 44 nM; in experiment [3], 231 nM; in experiment [4] it was 386000 nM.

On to `COC(=O)[C@]1(C)C[C@@](C)(c2cc(/C=C(\F)c3ccc(C#N)cn3)ccc2F)N=C(N)S1` [Example 109, (4S,6S)-methyl 2-amino-4-(5-((Z)-2-(5-cyanopyridin-2-yl)-2-fluorovinyl)-2-fluorophenyl)-4,6-dimethyl-5,6-dihydro-4H-1,3-thiazine-6-carboxylate], for which the IC50 in experiment [1] stood at 16 nM; in experiment [2] it was 24 nM; in experiment [3], 281 nM; in experiment [4], 95600 nM.

`C[C@@]1(C(=O)N2CCOCC2)C[C@@](C)(c2cc(/C=C(\F)c3ccc(C#N)cn3)ccc2F)N=C(N)S1` [Example 110, 6-((Z)-2-(3-((4S,6S)-2-amino-4,6-dimethyl-6-(morpholine-4-carbonyl)-5,6-dihydro-4H-1,3-thiazin-4-yl)-4-fluorophenyl)-1-fluorovinyl)nicotinonitrile]: the IC50 in experiment [1] was found to be 4 nM; in experiment [2] it was 2 nM; in experiment [3], 130 nM; in experiment [4], 250000 nM.

Consider `C[C@]1(C(=O)N2CCOCC2)C[C@@](C)(c2cc(/C=C(\F)c3ccc(C#N)cn3)ccc2F)N=C(N)S1` [Example 111, 6-((Z)-2-(3-((4S,6R)-2-amino-4,6-dimethyl-6-(morpholine-4-carbonyl)-5,6-dihydro-4H-1,3-thiazin-4-yl)-4-fluorophenyl)-1-fluorovinyl)nicotinonitrile], for which the IC50 in experiment [1] was determined as 98 nM; in experiment [2], 201 nM; in experiment [3], 1470 nM; in experiment [4] it was 300000 nM.

As for `C#CCOc1cnc(/C(F)=C/c2ccc(F)c([C@]3(C)C[C@](C)(C(=O)NC)SC(N)=N3)c2)cn1` [Example 112, (4S,6R)-2-amino-4-(2-fluoro-5-((Z)-2-fluoro-2-(5-(2-propyn-1-yloxy)-2-pyrazinyl)ethenyl)phenyl)-N,4,6-trimethyl-5,6-dihydro-4H-1,3-thiazine-6-carboxamide], the IC50 in experiment [1] turned out to be 37 nM; in experiment [2], 11 nM; in experiment [3], 1300 nM; in experiment [4], 79900 nM.

With `C#CCOc1cnc(/C(F)=C/c2ccc(F)c([C@]3(C)C[C@@](C)(C(=O)NC)SC(N)=N3)c2)cn1` [Example 113, (4S,6S)-2-amino-4-(2-fluoro-5-((Z)-2-fluoro-2-(5-(2-propyn-1-yloxy)-2-pyrazinyl)ethenyl)phenyl)-N,4,6-trimethyl-5,6-dihydro-4H-1,3-thiazine-6-carboxamide], the concentration for half-maximal inhibition (IC50) in experiment [1] stood at 22 nM; in experiment [2], 10 nM; in experiment [3] it was 835 nM; in experiment [4], 178000 nM.
